Values of other authors as cited in patent publication US20250243467A1, “BONE MARROW ORGANOIDS PRODUCED FROM INDUCED PLURIPOTENT STEM CELLS AND USES OF THESE ORGANOIDS” (PRISM INGENUITY GMBH, priority 2022, published 2025).

Columns and labels:
ALK7 = biological target: T1, ALK7 (Homo sapiens, UniProt Q8NER5); conditions: competing for the ATP binding site
T1 sequence (Q8NER5 21-493): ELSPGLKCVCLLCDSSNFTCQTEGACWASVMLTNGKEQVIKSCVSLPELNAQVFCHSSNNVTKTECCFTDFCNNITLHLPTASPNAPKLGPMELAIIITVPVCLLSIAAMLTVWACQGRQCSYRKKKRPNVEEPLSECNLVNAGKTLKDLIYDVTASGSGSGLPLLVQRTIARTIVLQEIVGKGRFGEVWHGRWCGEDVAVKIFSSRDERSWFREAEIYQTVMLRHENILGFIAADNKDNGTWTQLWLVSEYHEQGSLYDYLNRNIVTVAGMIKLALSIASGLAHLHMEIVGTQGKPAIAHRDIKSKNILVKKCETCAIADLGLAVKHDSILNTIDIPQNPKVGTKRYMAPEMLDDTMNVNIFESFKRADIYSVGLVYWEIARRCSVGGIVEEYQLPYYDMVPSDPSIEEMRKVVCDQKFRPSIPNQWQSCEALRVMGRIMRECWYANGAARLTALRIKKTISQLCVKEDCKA

ALK2 = ALK2 (Homo sapiens, UniProt Q04771)
ALK3 = ALK3 (Homo sapiens, UniProt P36894)
ALK6 = ALK6 (Homo sapiens, UniProt O00238)
Chain of ALK6 (O00238 14-502): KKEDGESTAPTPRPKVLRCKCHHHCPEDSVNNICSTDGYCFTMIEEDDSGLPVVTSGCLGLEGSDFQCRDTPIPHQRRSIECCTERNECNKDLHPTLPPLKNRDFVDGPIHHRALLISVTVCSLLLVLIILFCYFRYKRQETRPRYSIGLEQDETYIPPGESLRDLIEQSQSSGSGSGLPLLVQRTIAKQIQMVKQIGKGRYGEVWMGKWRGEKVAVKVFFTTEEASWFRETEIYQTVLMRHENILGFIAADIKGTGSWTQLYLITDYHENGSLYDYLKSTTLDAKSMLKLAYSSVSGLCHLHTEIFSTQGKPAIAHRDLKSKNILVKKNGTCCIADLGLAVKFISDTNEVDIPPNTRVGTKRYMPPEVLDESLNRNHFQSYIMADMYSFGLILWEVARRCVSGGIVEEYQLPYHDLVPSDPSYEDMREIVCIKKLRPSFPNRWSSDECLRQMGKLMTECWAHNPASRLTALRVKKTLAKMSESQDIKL

Chain of ALK2 (Q04771 21-509, species assumed): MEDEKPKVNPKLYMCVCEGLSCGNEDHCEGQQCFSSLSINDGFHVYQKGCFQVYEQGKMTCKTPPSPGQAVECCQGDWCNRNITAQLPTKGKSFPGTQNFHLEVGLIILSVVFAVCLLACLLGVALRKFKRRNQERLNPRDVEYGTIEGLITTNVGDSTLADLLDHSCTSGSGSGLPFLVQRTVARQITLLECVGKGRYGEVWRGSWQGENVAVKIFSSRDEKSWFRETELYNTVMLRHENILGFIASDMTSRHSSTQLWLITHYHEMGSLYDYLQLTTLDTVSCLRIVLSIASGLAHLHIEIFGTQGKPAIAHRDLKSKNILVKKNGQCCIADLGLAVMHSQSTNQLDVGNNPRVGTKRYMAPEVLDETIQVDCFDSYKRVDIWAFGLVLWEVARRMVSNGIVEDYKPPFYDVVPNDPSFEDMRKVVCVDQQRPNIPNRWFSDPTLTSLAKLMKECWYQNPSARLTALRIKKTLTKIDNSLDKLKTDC
Chain of ALK3 (P36894 24-532, species assumed): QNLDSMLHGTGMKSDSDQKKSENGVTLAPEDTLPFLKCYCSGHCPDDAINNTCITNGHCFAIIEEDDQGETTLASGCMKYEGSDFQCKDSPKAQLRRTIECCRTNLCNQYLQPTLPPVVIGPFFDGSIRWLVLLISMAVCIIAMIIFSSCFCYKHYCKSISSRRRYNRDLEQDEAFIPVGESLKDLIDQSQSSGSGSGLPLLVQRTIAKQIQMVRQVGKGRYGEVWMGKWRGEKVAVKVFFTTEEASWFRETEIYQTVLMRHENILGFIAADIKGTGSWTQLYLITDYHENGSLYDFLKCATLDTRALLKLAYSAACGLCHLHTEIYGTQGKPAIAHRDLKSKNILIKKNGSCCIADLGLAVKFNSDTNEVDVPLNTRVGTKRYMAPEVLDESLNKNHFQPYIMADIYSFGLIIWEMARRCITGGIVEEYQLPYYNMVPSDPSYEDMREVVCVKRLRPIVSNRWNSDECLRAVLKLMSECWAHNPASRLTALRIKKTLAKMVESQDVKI

inhibition of ALK7 (ALK7): inhibits
inhibition of BMP type I receptor ALK2 (ALK2): does not inhibit
inhibition of BMP type I receptor ALK3 (ALK3): does not inhibit
inhibition of BMP type I receptor ALK6 (ALK6): does not inhibit
SMILES: NC(=O)c1ccc(-c2nc(-c3ccc4c(c3)OCO4)c(-c3ccccn3)[nH]2)cc1 [SB431542]
